Data reported in ChEMBL document CHEMBL1201862, “PubChem BioAssay data set” (2004).
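Exposure lasted 48 hours, with cells grown in 96-well plates and compounds tested at five concentrations. At the GI50, growth is halved.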 Activity calls are given as the source filed them. Cut-off read from the data, not from the text of the source: active = GI50 up to about 1.1 µM and inactive = higher.

Experiments:
Assay in all cases: NCI anticancer screen, dose series, 48 h
SNB-75 = system: SNB-75
SW-620 = system: SW-620
SK-MEL-2 = system: SK-MEL-2
RXF 393 = system: RXF 393
SF-268 = system: SF-268
HL-60 = system: HL-60
SNB-19 = system: SNB-19
SK-MEL-28 = system: SK-MEL-28
OVCAR-8 = system: OVCAR-8
Malme-3M = system: Malme-3M
HT-29 = system: HT-29
SF-539 = system: SF-539
KM12 = system: KM12
NCI-H460 = system: NCI-H460
EKVX = system: EKVX
HOP-62 = system: HOP-62
RPMI-8226 = system: RPMI-8226

Measured: GI50

O=P(NCCCO)(OCc1ccccc1)N(CCCl)CCCl (configuration not stated)
inactive: SNB-75 > 100 µM | SW-620 > 100 µM | SK-MEL-2 > 100 µM | RXF 393 > 100 µM | SF-268 > 100 µM | HL-60 > 100 µM | SNB-19 > 100 µM | SK-MEL-28 > 100 µM | OVCAR-8 > 100 µM | Malme-3M > 100 µM | HT-29 > 100 µM | SF-539 > 100 µM | KM12 > 100 µM | NCI-H460 > 100 µM

COC(=O)C(=Cc1cc(OC)c(OC)c(OC)c1-c1cc2c(cc1C(C)=O)OCO2)C(=O)OC
inactive: SW-620 46.1 µM | SK-MEL-2 32.4 µM | RXF 393 33.7 µM | SF-268 57.1 µM | EKVX 72.8 µM | HOP-62 36.8 µM | HL-60 34.2 µM | SNB-19 39 µM | SK-MEL-28 33.1 µM | OVCAR-8 59 µM | Malme-3M 38.7 µM | HT-29 40.6 µM | SF-539 43.8 µM | RPMI-8226 35.5 µM | KM12 32.2 µM | NCI-H460 62.8 µM

CC(=O)NNc1nc(C)c(C(=O)NNC(=O)C(=O)Nc2c(C)cccc2C(C)C)s1
inactive: SW-620 55.3 µM | SK-MEL-2 > 100 µM | SF-268 59.6 µM | EKVX > 100 µM | HOP-62 > 100 µM | HL-60 46.7 µM | SNB-19 > 100 µM | SK-MEL-28 > 100 µM | OVCAR-8 94.2 µM | Malme-3M 59.3 µM | HT-29 > 100 µM | SF-539 95.9 µM | RPMI-8226 57.5 µM | KM12 95.7 µM | NCI-H460 86.3 µM

COC(=O)C1=CO[C@@H](OC2CC(CO)C(O)C(O)C2O)[C@@H]2[C@@H](C)[C@@H](OC(=O)/C=C/c3ccccc3)[C@@H](O)[C@H]12.COC(=O)C1=CO[C@@H](OC2CC(CO)C(O)C(O)C2O)[C@@H]2[C@@H](C)[C@@H](OC(=O)c3ccccc3)[C@@H](O)[C@H]12 (some centres not stated)
inactive: SNB-75 > 100 µM | SW-620 > 100 µM | SF-268 > 100 µM | EKVX > 100 µM | HOP-62 > 100 µM | HL-60 > 100 µM | SNB-19 10 µM | SK-MEL-28 > 100 µM | OVCAR-8 > 100 µM | Malme-3M > 100 µM | HT-29 > 100 µM | SF-539 > 100 µM | RPMI-8226 > 100 µM | KM12 > 100 µM

O=C(Nc1cccs1)c1c(O)[nH]c(=S)[nH]c1=O
inactive: SW-620 > 100 µM | SK-MEL-2 > 100 µM | SF-268 > 100 µM | HOP-62 > 100 µM | SNB-19 > 100 µM | SK-MEL-28 > 100 µM | OVCAR-8 > 100 µM | SF-539 > 100 µM | RPMI-8226 > 100 µM | KM12 > 100 µM | NCI-H460 > 100 µM

Cc1ccccc1/N=N/C(C(=O)c1ccccc1)C(=O)c1ccccc1
inactive: SNB-75 19.1 µM | SW-620 25.9 µM | SK-MEL-2 19.7 µM | SF-268 23.3 µM | EKVX 25.2 µM | HOP-62 23.8 µM | HL-60 11.9 µM | SNB-19 18.9 µM | SK-MEL-28 24 µM | OVCAR-8 31.8 µM | Malme-3M 31.7 µM | HT-29 28 µM | SF-539 23.8 µM | RPMI-8226 16.1 µM | KM12 29.7 µM

CCOC(=O)c1ccn2c(c1)c(C#N)c1nc3ccccc3nc12
inactive: SNB-75 13.3 µM | SW-620 50 µM | SK-MEL-2 > 100 µM | SF-268 > 100 µM | EKVX 70.6 µM | HOP-62 > 100 µM | HL-60 38.8 µM | SNB-19 61 µM | SK-MEL-28 > 100 µM | OVCAR-8 32.1 µM | Malme-3M 76 µM | SF-539 > 100 µM | RPMI-8226 43.6 µM | KM12 51.6 µM | NCI-H460 28.6 µM

Cc1ccc(C(=O)C(C)N)cc1C (configuration not stated)
inactive: SNB-75 > 100 µM | SW-620 > 100 µM | SK-MEL-2 > 100 µM | RXF 393 > 100 µM | SF-268 > 100 µM | EKVX > 100 µM | HOP-62 > 100 µM | SNB-19 > 100 µM | SK-MEL-28 > 100 µM | OVCAR-8 > 100 µM | Malme-3M > 100 µM | HT-29 > 100 µM | SF-539 > 100 µM | RPMI-8226 > 100 µM | KM12 > 100 µM | NCI-H460 > 100 µM

COCC1N=C(c2cc(OC)c(OC)c(OC)c2-c2cc3c(cc2[C@H](C)O)OCO3)O[C@H]1c1ccccc1 (some centres not stated)
inactive: SNB-75 49.2 µM | SW-620 > 100 µM | SK-MEL-2 36.7 µM | EKVX > 100 µM | HL-60 > 10 µM | SNB-19 61 µM | SK-MEL-28 59.2 µM | OVCAR-8 81.5 µM | HT-29 76.2 µM | SF-539 69.7 µM | RPMI-8226 31 µM | KM12 52.6 µM

C[C@]12CCC(=O)C=C1CC[C@@H]1[C@@H]2[C@@H](O)C[C@@]2(C)[C@H]1CC[C@]2(O)C(=O)COC(=O)CCC1CCCC1 [HYDROCORTISONE CYPIONATE]
inactive: SNB-75 > 100 µM | SW-620 > 100 µM | RXF 393 > 100 µM | SF-268 > 100 µM | EKVX > 100 µM | HL-60 72.9 µM | SNB-19 > 100 µM | SK-MEL-28 > 100 µM | OVCAR-8 > 100 µM | Malme-3M > 100 µM | HT-29 > 100 µM | SF-539 > 100 µM | KM12 > 100 µM | NCI-H460 > 100 µM
